Reference: US7335632B2, “Beta-secretase inhibitors and methods of use thereof” (CoMentis, Inc., priority 2001, dated 2008)

Columns and labels:
Aβ production = assay: Cellular Aβ IC50 determination (Aβ40 sandwich ELISA); assay type: cell-based; details: Cricetulus griseus, Chinese hamster ovary cells over-expressing human APP695 with London and Swedish mutations, 24 h
Description: The potency of compounds against memapsin 2 activity was determined in a cellular assay of Aβ production. […] Chinese hamster ovary cells that over-express human APP695 with the London and Swedish mutations were seeded in multi-well plates at 10% confluency. Compounds were dissolved in DMSO to concentrations near 1 mM, and diluted into culture media to a final concentration near 4 μM (final 0.4% DMSO). Compounds were diluted serially and applied to cells in multi-well plates 48 h after seeding. Incubation was continued in 5% CO2 at 37 degrees C. for 24 h. Aliquots were removed and assayed for Aβ40 content using a sandwich ELISA (BioSource International). Amount of Aβ40 over the range of concentration of compounds, relative to control incubations, were fit to a 4-parameter IC50 model.

Cathepsin D = Cathepsin D (Homo sapiens, UniProt P07339); assay: Inhibition of cathepsin D activity (substrate peptide […], MALDI-TOF); assay type: biochemical; details: pH 4.1, 37 degrees C., substrate NH3-[…]-CO2, MALDI-TOF; read-out: Cath D Ki
memapsin 1 = molecular target: T1, memapsin 1 (Homo sapiens, UniProt Q9Y5Z0); assay: Inhibition of memapsin 1 beta-secretase activity (substrate peptide […], MALDI-TOF); assay type: biochemical; details: pH 4.1, 37 degrees C., substrate NH3-ELDLAVEFWHDR-CO2, MALDI-TOF; read-out: M1 Ki
T1 sequence (Q9Y5Z0 63-518): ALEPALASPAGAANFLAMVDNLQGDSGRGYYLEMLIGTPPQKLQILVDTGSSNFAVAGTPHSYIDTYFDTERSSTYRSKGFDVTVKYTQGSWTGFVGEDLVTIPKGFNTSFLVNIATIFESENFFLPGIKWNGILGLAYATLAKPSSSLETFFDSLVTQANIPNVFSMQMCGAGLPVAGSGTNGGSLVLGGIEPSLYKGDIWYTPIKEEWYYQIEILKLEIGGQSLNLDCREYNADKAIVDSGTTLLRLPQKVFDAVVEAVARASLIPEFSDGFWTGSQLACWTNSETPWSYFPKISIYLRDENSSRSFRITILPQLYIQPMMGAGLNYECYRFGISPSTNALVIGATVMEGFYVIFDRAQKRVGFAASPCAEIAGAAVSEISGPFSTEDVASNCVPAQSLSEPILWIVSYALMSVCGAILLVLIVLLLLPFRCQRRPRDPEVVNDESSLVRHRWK

memapsin 2 = memapsin 2 (Homo sapiens, UniProt P56817); assay: Inhibition of memapsin 2 beta-secretase activity toward fluorogenic substrate FS-2; assay type: biochemical; details: pH 4, 37° C., 20 minutes pre-incubation, substrate FS-2, tight-binding model; read-out: M2 Ki
Description: Potency of compounds were determined by measurement of their inhibition of memapsin 2 activity toward a fluorescent substrate. […] Briefly, assays were performed at pH 4, 37° C., by pre-incubation of memapsin 2 enzyme with compound for 20 minutes. Activity measure was initiated by addition of a fluorogenic substrate FS-2 (Bachem Americas, Torrance, Calif.). Fluorescent signal increase over time was measured as a rate of hydrolysis of the peptide substrate.

Chain of Cathepsin D (P07339 65-412, species assumed): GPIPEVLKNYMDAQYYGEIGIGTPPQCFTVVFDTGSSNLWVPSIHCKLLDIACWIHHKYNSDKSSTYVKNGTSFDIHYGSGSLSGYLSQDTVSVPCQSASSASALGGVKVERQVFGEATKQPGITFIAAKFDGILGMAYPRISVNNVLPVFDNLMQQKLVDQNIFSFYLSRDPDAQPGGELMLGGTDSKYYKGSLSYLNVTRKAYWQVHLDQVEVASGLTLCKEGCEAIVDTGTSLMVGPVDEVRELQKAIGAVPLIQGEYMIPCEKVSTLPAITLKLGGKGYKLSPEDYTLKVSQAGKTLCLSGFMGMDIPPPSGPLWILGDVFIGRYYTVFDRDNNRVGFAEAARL
Chain of memapsin 2 (P56817 46-501): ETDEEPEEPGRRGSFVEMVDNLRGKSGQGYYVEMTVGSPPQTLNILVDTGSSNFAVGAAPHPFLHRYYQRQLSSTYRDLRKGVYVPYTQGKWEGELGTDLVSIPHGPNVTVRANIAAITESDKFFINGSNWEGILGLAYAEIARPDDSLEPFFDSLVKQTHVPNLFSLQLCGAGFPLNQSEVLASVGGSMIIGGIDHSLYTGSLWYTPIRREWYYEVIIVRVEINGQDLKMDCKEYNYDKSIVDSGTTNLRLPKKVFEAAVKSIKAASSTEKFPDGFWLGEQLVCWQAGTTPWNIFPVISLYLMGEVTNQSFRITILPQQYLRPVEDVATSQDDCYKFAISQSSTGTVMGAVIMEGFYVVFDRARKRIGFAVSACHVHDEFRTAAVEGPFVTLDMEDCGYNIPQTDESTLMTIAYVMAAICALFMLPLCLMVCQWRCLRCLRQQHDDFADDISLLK

Row | SMILES | IC50 (Aβ production) [nM] | Ki (Cathepsin D) [nM] | Ki (memapsin 1) [nM] | Ki (memapsin 2) [nM]
1 | CC[C@@H](Cn1nc(C)cc1C)C(=O)N[C@@H](CSC)C(=O)N[C@H](CC(C)C)[C@@H](O)C[C@@H](C)C(=O)N[C@@H](C(=O)NCC(C)C)C(C)C [Structure 3] | < 6000 | < 100 | 100 to 1000 | < 100
2 | Cc1csc(COC(=O)N[C@@H](CS(C)(=O)=O)C(=O)N[C@H](Cc2cc(F)cc(F)c2)[C@@H](O)C[C@@H](C)C(=O)N[C@@H](C(=O)NCC(C)C)C(C)C)n1 [Structure 79] | < 6000 | < 100 | < 100 | < 100
3 | Cc1csc(COC(=O)N[C@@H](CS(C)(=O)=O)C(=O)N[C@H](CC(C)C)[C@@H](O)C[C@@H](C)C(=O)N[C@@H](C(=O)NCC(C)C)C(C)C)n1 [Structure 16] | 6000 to 100000 | 100 to 1000 | 100 to 1000 | < 100
4 | Cc1nc(COC(=O)N[C@@H](CSC(C)C)C(=O)N[C@H](CC(C)C)[C@@H](O)C[C@@H](C)C(=O)N[C@@H](C(=O)NCC(C)C)C(C)C)c(C)o1 [Structure 60] | < 6000 | < 100 | 100 to 1000 | < 100
5 | COC(=O)[C@H](NC(=O)[C@H](C)C[C@H](O)[C@@H](CC(C)C)NC(=O)[C@H](CSC)NC(=O)OCc1nc(C)cs1)C(C)C [Structure 88] | < 6000 | 100 to 1000 | > 1000 | > 1000
6 | CSC[C@H](NC(=O)[C@@H](C)Cc1nc(C)cs1)C(=O)N[C@H](CC(C)C)[C@@H](O)C[C@@H](C)C(=O)N[C@@H](C(=O)NCC(C)C)C(C)C [Structure 64] | < 6000 | < 100 | 100 to 1000 | 100 to 1000
7 | CSC[C@H](NC(=O)OCc1nc(C)cs1)C(=O)N[C@H](CC(C)C)[C@@H](O)C[C@@H](C)C(=O)N[C@@H](C(=O)NCC(C)C)C(C)C [Structure 17] | 6000 to 100000 | < 100 | 100 to 1000 | < 100
8 | Cc1nc(COC(=O)N[C@@H](CS(C)(=O)=O)C(=O)N[C@H](CC(C)C)[C@@H](O)C[C@@H](C)C(=O)N[C@@H](C(=O)NCC(C)C)C(C)C)c(C)o1 [Structure 94] | < 6000 | 100 to 1000 | 100 to 1000 | < 100
9 | Cc1csc(COC(=O)N[C@@H](CSC2CCCC2)C(=O)N[C@H](CC(C)C)[C@@H](O)C[C@@H](C)C(=O)N[C@@H](C(=O)NCC(C)C)C(C)C)n1 [Structure 56] | > 100000 | < 100 | 100 to 1000 | < 100
10 | Cc1nc(COC(=O)N[C@@H](CS(C)(=O)=O)C(=O)N[C@H](Cc2cc(F)cc(F)c2)[C@@H](O)C[C@@H](C)C(=O)N[C@@H](C(=O)NCC(C)C)C(C)C)c(C)o1 [Structure 78] | 6000 to 100000 | < 100 | < 100 | 100 to 1000
11 | Cc1csc(COC(=O)N[C@@H](CS(C)(=O)=O)C(=O)N[C@H](CC(C)C)[C@@H](O)C[C@@H](C)C(=O)N[C@@H](C(=O)NCC(C)C)c2ccccc2)n1 [Structure 68] | 6000 to 100000 | 100 to 1000 | 100 to 1000 | < 100
12 | Cc1csc(COC(=O)N[C@@H](CS(C)(=O)=O)C(=O)N[C@H](Cc2ccccc2)[C@@H](O)C[C@@H](C)C(=O)N[C@@H](C(=O)NCC(C)C)C(C)C)n1 [Structure 55] | 6000 to 100000 | < 100 | < 100 | < 100
13 | CSC[C@H](NC(=O)OCc1nc(C)cs1)C(=O)N[C@H](CC(C)C)[C@@H](O)C[C@@H](C)C(=O)N[C@H](CC(C)C)C(=O)NC(C)C [Structure 43] | 6000 to 100000 | < 100 | 100 to 1000 | < 100
14 | C=CCS(=O)(=O)C[C@H](NC(=O)CCn1nc(C)cc1C)C(=O)N[C@H](CC(C)C)[C@@H](O)C[C@@H](C)C(=O)N[C@@H](C(=O)NCC(C)C)C(C)C [Structure 18] | > 100000 | < 100 | < 100 | < 100
